In patent US20250346582A1, “SPLEEN TYROSINE KINASE INHIBITORS AND METHODS OF USE THEREOF” (THE BOARD OF TRUSTEES OF THE UNIVERSITY OF ILLINOIS, priority 2022, published 2025):

How the values were obtained:
BLNK-SH2 = target: T1, BLNK-SH2 (Homo sapiens, UniProt Q8WV28); assay: Fluorescence quenching vesicle binding assay, BLNK-SH2; conditions: Table 4; POPC/POPS/PIP3/dabsyl-PE (67:20:3:10) vesicles (40 μM); read-out: Imax (%)
T1 construct: All SH2 domain constructs were cloned into the pRSET-B vector; polyhistidine (N); made in house; host or cells: Escherichia coli BL21 (DE3) pLysS
T1 sequence (Q8WV28 346-453 limits assumed): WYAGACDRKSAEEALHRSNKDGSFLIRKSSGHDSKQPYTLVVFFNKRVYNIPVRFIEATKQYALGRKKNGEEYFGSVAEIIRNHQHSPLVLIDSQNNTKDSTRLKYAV
Description: (§1) The membrane-binding assay is based on fluorescence quenching of EGFP fused to a SH2 domain by a dark quencher containing lipid, dabsyl-PE, incorporated in lipid vesicles. The plate reader assay was performed using the Synergy™ Neo spectrofluorometer at 25° C. Nontreated black polystyrene 96-well plates (Corning) were used. Protein (10-50 nM) with the increasing concentration of vesicles with a given lipid composition in 20 mM Tris buffer, pH 7.4, containing 0.16 M NaCl was added to each row of wells and the EGFP fluorescence emission at 516 nm was measured with excitation set at 485 nm. Z′ factor for the assay system was determined as described^74. Imax and IC50 values of inhibitors were determined using the equation, I=Imax/(1+IC50/[I]) where I and [I] indicate % inhibition and inhibitor concentration, respectively. The average and standard deviation values were obtained from triplicate determinations.
(§2) We also optimized a recently developed fluorescence quenching-based lipid-binding assay^47 for high-throughput screening of these molecules for their inhibitory activity against the PIP3-SH2 interaction. Specifically, we expressed SH2 domains as EGFP-tagged proteins and directly quantified their membrane binding by monitoring the quenching of EGFP fluorescence emission intensity by a dark quencher-containing lipid, N-dimethylaminoazo-benzenesulfonyl-phosphatidylethanolamine (dabsyl-PE), incorporated in the vesicles. We then screened for compounds that inhibited binding of Syk-cSH2, BLNK-SH2, and PLCγ2-cSH2, respectively, to 1-palmitoyl-2-oleoyl-PC (POPC)/1-palmitoyl-2-oleoyl-PS (POPS)/PIP3/dabsyl-PE (67:20:3:10) vesicles while eliminating those that inhibit their non-specific binding to anionic POPC/POPS/dabsyl-PE (70:20:10) vesicles. The quality of the screening system was evaluated using 1% dimethylsulfoxide (DMSO) and 20 μM D-myo-inositol-1,3,4,5-tetraphosphate (IP4) as negative and positive controls, respectively. The clear separation of positive and negative control data and the average Z′-factor of 0.7 supported the robustness of our system for high-throughput screen of PIP3-SH2 interaction inhibitors.

Syk-cSH2 = target: T2, Syk-cSH2 (Homo sapiens, UniProt P43405); assay: Fluorescence quenching vesicle binding assay, Syk-cSH2; conditions: for IC50: read-out: IC50
T2 construct: polyhistidine (N); made in house; host or cells: Escherichia coli BL21 (DE3) pLysS
Description: as §1, §2

ZAP70-cSH2 = target: T3, ZAP70-cSH2 (Homo sapiens, UniProt P43403); assay: Fluorescence quenching vesicle binding assay, ZAP70-cSH2; conditions: for Emax: read-out: Imax (%); for inhibition of ZAP-70-cSH2 binding to POPC/POPS/PIP3/dabsyl-PE vesicles: in words
T3 construct: polyhistidine (N); made in house; host or cells: Escherichia coli BL21 (DE3) pLysS
T3 sequence (P43403 163-254 limits assumed): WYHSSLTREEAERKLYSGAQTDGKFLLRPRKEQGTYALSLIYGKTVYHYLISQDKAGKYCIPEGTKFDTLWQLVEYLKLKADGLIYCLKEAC
Description: as §1, §2

pSyk = target: T4, pSyk (Homo sapiens, UniProt P43405); assay: Western blot inhibition of Syk phosphorylation in Raji B cells; format: cell-based; conditions: Immunoblotting, Western blot assay in Raji B cells
T4 construct: endogenous in cells; host or cells: Raji B cells, IgM-stimulated
Description: (§3) (a) Cellular efficacy of WC35, WC36, and WC38 was determined by dose-dependent inhibition of Syk phosphorylation in Raji B cells. (b) Imax and IC50 values were determined by non-linear least-squares analysis of data using the equation: […] Each data represents average ±s.d. from triplicate measurements. […] Jurkat T cells were stimulated by OKT3. Cells were seeded at a density of 3.0×10^5 cells/well prior to incubation with inhibitors. […] IgG2 for AML cells, IgM for Raji B cells, and OKT3 (Biolegend) for Jurkat cells. […] Samples were analyzed by SDS-PAGE. Proteins were separated and transferred to Immobilon-P polyvinylidene difluoride membrane (Millipore Sigma). […] The chemiluminescence intensity of protein bands in the gel was analyzed and documented by the Azure […] Imaging System.

pZAP70 = target: T5, pZAP70 (Homo sapiens, UniProt P43403); assay: Western blot inhibition of ZAP70 phosphorylation in Jurkat T cells; format: cell-based; conditions: for Emax: Immunoblotting, pZAP70, Western blot assay in Jurkat T cells, read-out: Imax (%); for inhibition of ZAP-70 phosphorylation: Jurkat T cells stimulated by OKT3, 5 μM overnight
T5 construct: host or cells: Jurkat T cells, OKT3-stimulated
T5 sequence (P43403 1-619): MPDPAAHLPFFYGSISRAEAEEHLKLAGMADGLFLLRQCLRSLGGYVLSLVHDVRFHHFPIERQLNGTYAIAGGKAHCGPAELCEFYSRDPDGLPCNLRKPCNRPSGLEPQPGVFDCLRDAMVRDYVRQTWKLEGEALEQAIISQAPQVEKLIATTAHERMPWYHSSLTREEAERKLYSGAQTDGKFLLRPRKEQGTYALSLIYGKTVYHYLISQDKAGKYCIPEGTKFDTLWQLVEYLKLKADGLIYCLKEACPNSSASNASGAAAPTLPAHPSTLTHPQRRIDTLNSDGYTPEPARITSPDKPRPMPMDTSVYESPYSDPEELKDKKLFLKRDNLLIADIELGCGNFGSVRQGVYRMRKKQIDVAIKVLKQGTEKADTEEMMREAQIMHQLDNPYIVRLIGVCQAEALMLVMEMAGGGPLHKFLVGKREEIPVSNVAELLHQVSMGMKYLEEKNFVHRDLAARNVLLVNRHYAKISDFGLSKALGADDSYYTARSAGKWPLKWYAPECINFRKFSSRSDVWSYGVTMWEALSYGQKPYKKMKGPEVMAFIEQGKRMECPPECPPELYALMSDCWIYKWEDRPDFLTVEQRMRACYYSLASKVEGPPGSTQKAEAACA
Description: as §3

[1] = Table 3, efficacy determined by the vesicle binding assay
[2] = Table 4, POPC/POPS/PIP3/dabsyl-PE (67:20:3:10) vesicles (40 μM)

SMILES | Emax (BLNK-SH2) | Imax (%) (Syk-cSH2; [1]) | IC50 (Syk-cSH2; [1]) | Imax (%) (Syk-cSH2; [2]) | IC50 (ZAP70-cSH2; [2]) | Emax (ZAP70-cSH2; [2]) | inhibition of ZAP-70-cSH2 binding to POPC/POPS/PIP3/dabsyl-PE vesicles (ZAP70-cSH2) | IC50 (pSyk) | Imax (%) (pSyk) | Emax (pZAP70) | inhibition of ZAP-70 phosphorylation (pZAP70)
[N-]=[N+]=C(C(=O)OC1CCCCC1)C(Nc1ncccn1)c1ccc[nH]1 (racemic) [WC38, Cyclohexyl 2-diazo-3-(pyrimidin-2-ylamino)-3-(1H-pyrrol-2-yl)propanoate] | < 10% | Imax (%) = 70 | 120 nM | 70 ± 5% | 340 ± 20 nM | 30 ± 5% | did not inhibit binding | 180 ± 30 nM | 65 ± 3% | < 10% | did not inhibit phosphorylation and activation of ZAP-70
[N-]=[N+]=C(C(=O)OC1CCCCC1)C(Nc1ncccn1)c1c[nH]c2ccccc12 (racemic) [WC36, Cyclohexyl 2-diazo-3-(1H-indol-3-yl)-3-(pyrimidin-2-ylamino)propanoate] | < 10% | Imax (%) = 60 | 40 nM | 60 ± 5% |  | < 10% | did not inhibit binding | 52 ± 10 nM | 67 ± 5% | < 10% | did not inhibit phosphorylation and activation of ZAP-70
[N-]=[N+]=C(C(=O)OC1CCCCC1)C(Nc1ncccn1)c1ccco1 (racemic) [WC35, Cyclohexyl 2-diazo-3-(furan-2-yl)-3-(pyrimidin-2-ylamino)propanoate] | < 10% | Imax (%) = 50 | 150 nM | 50 ± 5% |  | < 20% | did not inhibit binding | 180 ± 50 nM | 58 ± 5% | < 10% | did not inhibit phosphorylation and activation of ZAP-70
